EPA's ToxValDB 9.5 (doi:10.2903/j.efsa.2018.5152)

Tests used:
Colinus virginianus = settings: chronic
Apis mellifera = settings: acute, mortality
Typhlodromus pyri = experiment: LR50; higher = less toxic; settings: not reported; mortality
Oncorhynchus mykiss = settings: acute; duration: 96 hours; mortality
Aphidius rhopalosiphi = experiment: LR50; higher = less toxic; settings: not reported; mortality
[1] = short-term; duration: 28 days; reproduction
Tagia sp. = settings: chronic/long-term; duration: 28 days; reproduction

O.O.[Cu] [Copper hydroxide (Cu(OH)2)]
NOEL (Colinus virginianus): 5.05 mg/kg-day
LD50 (Apis mellifera; dermal): 44.5 µg/piece
LC50 (Daphnia magna; acute, duration: 48 hours, mortality): 0.0266 µg/mL
LR50 (Typhlodromus pyri): > 14900 g/ha

[Cu+].[Cu+].[O-2] [Cuprous oxide]
LC50 (Oncorhynchus mykiss): 0.207 µg/mL
LR50 (Typhlodromus pyri): > 26100 g/ha
LR50 (Aphidius rhopalosiphi): 39200 g/ha

[Cl-].[Cu+2].[Cu+2].[OH-].[OH-].[OH-] [Dicopper chloride trihydroxide]
LD50 (Apis mellifera; dermal): 44.3 µg/piece
LD50 (Apis mellifera; oral, unspecified): 12.1 µg/piece
NOEC (Daphnia magna; chronic/long-term, duration: 21 days, reproduction): 0.0076 mg/L
LR50 (Typhlodromus pyri): > 14900 g/ha

[Cl][Cu][Cl] [Copper(II) chloride]
NOEC [1]: 16.2 mg/kg-day
NOEC (Tagia sp.): 8.4 mg/kg
